The text below walks through data of paper PMC3234597, “Two Panels of Steroid Receptor Luciferase Reporter Cell Lines for Compound Profiling” (Combinatorial Chemistry & High Throughput Screening, 2011).

Holding throughout (format): cell-based
For one test, the target named is T1, human ERα (full-length) (Homo sapiens, UniProt P03372, G400V).
T1 sequence (P03372 1-595 G400V): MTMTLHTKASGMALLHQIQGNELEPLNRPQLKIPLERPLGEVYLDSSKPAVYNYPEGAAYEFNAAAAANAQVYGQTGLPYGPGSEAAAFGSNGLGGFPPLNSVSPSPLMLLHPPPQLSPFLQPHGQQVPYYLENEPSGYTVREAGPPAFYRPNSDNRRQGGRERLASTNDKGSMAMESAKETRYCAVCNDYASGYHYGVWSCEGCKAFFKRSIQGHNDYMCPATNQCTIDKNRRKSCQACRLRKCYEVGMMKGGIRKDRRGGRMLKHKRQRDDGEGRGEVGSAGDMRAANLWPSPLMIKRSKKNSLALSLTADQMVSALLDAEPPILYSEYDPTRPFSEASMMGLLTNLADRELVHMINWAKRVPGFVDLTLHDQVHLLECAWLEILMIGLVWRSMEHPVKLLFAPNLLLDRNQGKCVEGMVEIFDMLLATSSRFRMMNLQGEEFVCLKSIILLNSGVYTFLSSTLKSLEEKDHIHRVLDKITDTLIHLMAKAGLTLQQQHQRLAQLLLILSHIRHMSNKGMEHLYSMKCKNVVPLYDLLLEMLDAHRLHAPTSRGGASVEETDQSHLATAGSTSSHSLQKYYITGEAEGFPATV
The experiment in a line: U2OS-ERα/3xERE luciferase reporter cell line (full-length receptor).

For another test, the target named is T2, PR-LBD fused to Gal4-DBD (Homo sapiens, UniProt P06401).
T2 construct: PR-LBD region was PCR amplified using the following primer combination; host or cells: U2OS
T2 sequence (P06401 679-913 limits assumed): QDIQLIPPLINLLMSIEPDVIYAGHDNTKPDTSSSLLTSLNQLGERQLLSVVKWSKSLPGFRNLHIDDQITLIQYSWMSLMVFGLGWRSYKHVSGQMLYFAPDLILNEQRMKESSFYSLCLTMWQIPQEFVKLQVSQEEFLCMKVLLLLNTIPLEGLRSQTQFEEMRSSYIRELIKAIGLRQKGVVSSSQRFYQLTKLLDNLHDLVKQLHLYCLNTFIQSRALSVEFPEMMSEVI
As to the kind of experiment: U2OS-PR-LBD/9xGal4UAS luciferase reporter cell line.

The next test deals with T3, human GR (full-length) (Homo sapiens, UniProt P04150).
T3 construct: expression vectors encoding full-length steroid receptors: pcDNA3-hAR and pcDNA3-hGR; host or cells: U2OS
T3 sequence (P04150 1-777): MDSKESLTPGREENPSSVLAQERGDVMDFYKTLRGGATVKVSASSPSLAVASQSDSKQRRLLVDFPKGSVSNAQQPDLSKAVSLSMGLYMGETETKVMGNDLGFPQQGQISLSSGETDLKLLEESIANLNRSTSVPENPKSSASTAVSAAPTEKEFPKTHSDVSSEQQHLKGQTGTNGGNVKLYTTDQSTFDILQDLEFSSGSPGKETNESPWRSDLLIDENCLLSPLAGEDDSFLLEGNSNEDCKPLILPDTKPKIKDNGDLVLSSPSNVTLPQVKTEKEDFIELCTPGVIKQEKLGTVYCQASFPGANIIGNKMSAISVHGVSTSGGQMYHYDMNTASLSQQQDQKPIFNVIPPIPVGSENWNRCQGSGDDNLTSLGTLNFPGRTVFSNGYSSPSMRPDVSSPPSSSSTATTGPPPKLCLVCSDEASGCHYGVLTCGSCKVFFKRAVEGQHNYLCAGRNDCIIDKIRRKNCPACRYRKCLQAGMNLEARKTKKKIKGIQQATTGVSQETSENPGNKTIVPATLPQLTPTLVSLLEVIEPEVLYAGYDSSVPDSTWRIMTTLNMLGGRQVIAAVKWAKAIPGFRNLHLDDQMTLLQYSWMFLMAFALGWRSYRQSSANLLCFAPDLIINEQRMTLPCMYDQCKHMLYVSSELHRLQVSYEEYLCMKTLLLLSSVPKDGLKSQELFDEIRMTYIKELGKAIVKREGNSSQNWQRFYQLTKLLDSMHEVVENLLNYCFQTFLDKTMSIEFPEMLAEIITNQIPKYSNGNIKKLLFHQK
The experiment in a line: U2OS-GR/MMTV luciferase reporter cell line (full-length receptor). The conditions noted are these: read-out: Log EC50 (converted).

The target of test [1] is T4, ERα^G420C-LBD fused to Gal4-DBD (Homo sapiens, UniProt P03372, G420C).
T4 construct: expressed in transfected cells; host or cells: U2OS
T4 sequence (P03372 311-547 G420C limits assumed): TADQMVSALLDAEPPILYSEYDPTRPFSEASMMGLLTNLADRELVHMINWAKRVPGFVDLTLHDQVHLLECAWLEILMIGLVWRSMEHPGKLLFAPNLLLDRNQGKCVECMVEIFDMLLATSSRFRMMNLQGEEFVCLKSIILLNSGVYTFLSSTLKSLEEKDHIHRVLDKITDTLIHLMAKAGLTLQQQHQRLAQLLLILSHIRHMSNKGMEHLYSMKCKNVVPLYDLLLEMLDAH
The experiment in a line: U2OS-ERα^G420C-LBD/9xGal4UAS luciferase reporter cell line.

The target in test [2] is T5, ERβ-LBD fused to Gal4-DBD (Homo sapiens, UniProt Q92731).
T5 construct: region comprising ERβ-LBD and a piece of the hinge region; expressed in transfected cells; host or cells: U2OS
The experiment in a line: U2OS-ERβ-LBD/9xGal4UAS luciferase reporter cell line. The note with it: read-out: Log EC50 (converted).

A further test has as its target T6, MR-LBD fused to Gal4-DBD (Homo sapiens, UniProt P08235).
T6 construct: MR-LBD was cloned by RT-PCR from total RNA isolated from HEK293 cells; expressed in transfected cells; host or cells: U2OS
T6 sequence (P08235 726-964 limits assumed): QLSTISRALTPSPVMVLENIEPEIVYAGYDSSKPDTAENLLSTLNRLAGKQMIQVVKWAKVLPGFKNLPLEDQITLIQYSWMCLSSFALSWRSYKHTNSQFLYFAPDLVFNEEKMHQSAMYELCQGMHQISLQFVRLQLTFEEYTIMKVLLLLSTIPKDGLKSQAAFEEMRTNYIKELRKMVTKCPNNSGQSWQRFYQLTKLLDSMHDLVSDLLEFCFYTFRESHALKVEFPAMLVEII
The experiment in a line: U2OS-MR-LBD/9xGal4UAS luciferase reporter cell line. The note with it: read-out: Log EC50 (converted).

In a further test the target is T7, human ERβ (full-length) (Homo sapiens, UniProt Q92731).
T7 construct: expression vectors encoding full-length steroid receptors: pcDNA3-hERα and pcDNA3-ERβ; expressed in transfected cells; host or cells: U2OS
The experiment in a line: U2OS-ERβ/3xERE luciferase reporter cell line (full-length receptor). The conditions noted are these: read-out: Log EC50 (converted).

Bounds are passed on as bounds.

T7 sequence (Q92731 whole entry): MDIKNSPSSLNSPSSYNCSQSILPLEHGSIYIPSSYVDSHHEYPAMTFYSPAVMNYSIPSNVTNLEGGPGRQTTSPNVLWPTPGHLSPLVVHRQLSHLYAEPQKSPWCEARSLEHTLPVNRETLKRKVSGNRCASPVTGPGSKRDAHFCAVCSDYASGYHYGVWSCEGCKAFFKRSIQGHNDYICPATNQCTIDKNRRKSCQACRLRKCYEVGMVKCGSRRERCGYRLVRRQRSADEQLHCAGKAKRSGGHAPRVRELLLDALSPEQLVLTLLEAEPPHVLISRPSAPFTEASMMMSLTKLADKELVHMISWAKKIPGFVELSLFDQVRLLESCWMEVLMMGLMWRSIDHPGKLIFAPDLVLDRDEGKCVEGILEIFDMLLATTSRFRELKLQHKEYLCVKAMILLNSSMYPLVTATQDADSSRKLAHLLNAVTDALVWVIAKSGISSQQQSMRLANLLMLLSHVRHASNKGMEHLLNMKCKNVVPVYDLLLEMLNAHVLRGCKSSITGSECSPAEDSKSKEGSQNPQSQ
T5 sequence (Q92731 264-498 limits assumed): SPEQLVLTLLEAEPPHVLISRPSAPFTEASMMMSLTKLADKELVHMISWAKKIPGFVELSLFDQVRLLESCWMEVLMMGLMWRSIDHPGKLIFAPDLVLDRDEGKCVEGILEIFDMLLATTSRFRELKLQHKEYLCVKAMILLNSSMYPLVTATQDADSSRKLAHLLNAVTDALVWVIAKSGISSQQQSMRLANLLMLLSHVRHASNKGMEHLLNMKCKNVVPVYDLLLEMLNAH

Usually EC50 stands for the concentration that produces a half-maximal response. Broadly, the IC50 is the concentration that inhibits the measured activity by half. On to `CCC(=O)[C@@]1(C)CC[C@H]2[C@@H]3CCC4=CC(=O)CCC4=C3CC[C@@]21C` [Promegestone (R5020), promegestone], for which the EC50 at human ERα (full-length) was above 10 µM; on PR-LBD fused to Gal4-DBD (read-out: Log EC50 (converted)), 0.0129 nM; on human GR (full-length) it was above 10 µM; in test [1], above 10 µM; in test [2], above 10 µM; at MR-LBD fused to Gal4-DBD, above 10 µM. The EC50 at human ERβ (full-length) is above 10 µM. For the same compound, the IC50 at PR-LBD fused to Gal4-DBD (antagonist mode, PR-LBD/9xGal4UAS, log10 of molar IC50, mean ± SEM, read-out: Log IC50 (converted)) is above 10 µM.
